Data published in BindingDB's records for doi:10.1016/j.bioorg.2016.02.004 (Universiti Teknologi Mara (Uitm), Puncak Alam Campus, 2016).
pIC50: −log10 of the molar value.

Target: Alpha-glucosidase MAL12 (Saccharomyces cerevisiae (strain ATCC 204508 / S288c), UniProt P53341)
Assay: Assay for α-Glucosidase Inhibitory Activity
Description: The 135 µL of 50 mM phosphate saline buffer pH (6.8), solution of enzyme (20 µL), and 20 µL of test sample with 70% DMSO was added to 96-well plate. The samples were incubated for 15 min. Pre-read of the plate was taken after incubation using SpectraMax. substrate (pNPG) (25 µL) was added before final reading was takenat 400 nm on Spectra Max.

Sequence of Alpha-glucosidase MAL12 (P53341 whole entry): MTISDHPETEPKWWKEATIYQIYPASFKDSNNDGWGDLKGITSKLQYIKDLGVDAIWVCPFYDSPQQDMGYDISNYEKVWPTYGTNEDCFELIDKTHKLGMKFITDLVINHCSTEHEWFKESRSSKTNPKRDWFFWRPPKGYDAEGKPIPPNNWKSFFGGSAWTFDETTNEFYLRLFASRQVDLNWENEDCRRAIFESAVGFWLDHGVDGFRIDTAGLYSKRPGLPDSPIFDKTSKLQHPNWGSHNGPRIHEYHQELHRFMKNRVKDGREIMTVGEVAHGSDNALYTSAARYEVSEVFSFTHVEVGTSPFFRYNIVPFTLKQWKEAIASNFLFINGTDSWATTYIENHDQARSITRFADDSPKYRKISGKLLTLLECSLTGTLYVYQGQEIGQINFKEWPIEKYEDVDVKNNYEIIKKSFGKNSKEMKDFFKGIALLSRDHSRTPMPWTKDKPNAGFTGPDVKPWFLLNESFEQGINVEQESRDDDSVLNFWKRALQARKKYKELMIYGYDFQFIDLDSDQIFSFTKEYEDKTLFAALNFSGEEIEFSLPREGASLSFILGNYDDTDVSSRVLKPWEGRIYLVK

| pIC50 | Structure (SMILES) |
| --- | --- |
| 3.87 | Cc1cccc2nc(-c3ccc(F)cc3)[nH]c12 [2-(4'-Fluorophenyl)-7-methyl-1H-benzo[d]imidazole (16)] |
| 4.34 | COc1ccc(O)c(-c2nc3cccc(C)c3[nH]2)c1 [2-(2'-Hydroxy-5'-methoxyphenyl)-7-methyl-1H-benzo[d]imidazole (14)] |
| 3.65 | COc1ccc(-c2nc3cccc(C)c3[nH]2)cc1O [2-(3'-Hydroxy-4'-methoxyphenyl)-7-methyl-1H-benzo[d]imidazole (21)] |
| 3.49 | Cc1cccc2nc(-c3cccc(O)c3)[nH]c12 [2-(3'-Hydroxyphenyl)-7-methyl-1H-benzo[d]imidazole (18)] |
| 4.53 | COc1ccc(-c2nc3cccc(C)c3[nH]2)c(O)c1 [2-(2'-Hydroxy-4'-methoxyphenyl)-7-methyl-1H-benzo[d]imidazole (20)] |
| 3.90 | Cc1cccc2nc(-c3cc(O)ccc3O)[nH]c12 [2-(20,50-Dihydroxyphenyl)-7-methyl-1H-benzo[d]imidazole (13)] |
| 4.79 | Cc1cccc2nc(-c3ccccc3O)[nH]c12 [2-(2'-Hydroxyphenyl)-7-methyl-1H-benzo[d]imidazole (19)] |
| 4.07 | Cc1cccc2nc(-c3cccc(O)c3O)[nH]c12 [2-(2',3'-Dihydroxyphenyl)-7-methyl-1H-benzo[d]imidazole (15)] |
| 4.60 | Cc1cccc2nc(-c3ccc(O)c(O)c3)[nH]c12 [2-(3',4'-Dihydroxyphenyl)-7-methyl-1H-benzo[d]imidazole (10)] |
| 3.14 | Cc1cccc2nc(-c3ccncc3)[nH]c12 [7-Methyl-2-(pyridin-4'-yl)-1H-benzo[d]imidazole (24)] |
| 3.84 | Cc1cccc2nc(-c3ccc(Cl)cc3)[nH]c12 [2-(4'-Chlorophenyl)-7-methyl-1H-benzo[d]imidazole (27)] |
| 4.46 | Cc1cccc2nc(-c3ccccc3F)[nH]c12 [2-(2'-Fluorophenyl)-7-methyl-1H-benzo[d]imidazole (8)] |
| 3.78 | Cc1cccc2nc(-c3cccc(F)c3)[nH]c12 [2-(3'-Fluorophenyl)-7-methyl-1H-benzo[d]imidazole (9)] |
| 4.02 | Cc1cccc2nc(-c3ccc(O)cc3)[nH]c12 [2-(4'-Hydroxyphenyl)-7-methyl-1H-benzo[d]imidazole (17)] |
| 5.28 | Cc1cccc2nc(-c3ccccc3Cl)[nH]c12 [2-(2'-Chlorophenyl)-7-methyl-1H-benzo[d]imidazole (25)] |
| 4.35 | Cc1cccc2nc(-c3ccccc3[N+](=O)[O-])[nH]c12 [2-(2'-Nitrophenyl)-7-methyl-1H-benzo[d]imidazole (7)] |
| 4.22 | Cc1cccc2nc(-c3ccc(O)cc3O)[nH]c12 [2-(2',4'-Dihydroxyphenyl)-7-methyl-1H-benzo[d]imidazole (2)] |
